Converted amounts (≈) assume the structure as drawn.
Key:
E. coli 25922 = assay: Antibacterial activity MIC, Gram- (Table 9); type: cell-based; conditions: Escherichia coli, CAMHB, 35° C., approximately 18 hr
Protocol: (§1) 2 mg of each compound is dissolved in 100 μl of DMSO. The solution is then added to cation-adjusted Mueller Hinton broth (CAMHB), which results in a final compound concentration of 200 μg per ml. The tetracycline compound solutions are diluted to 50 μL volumes, with a test compound concentration of 0.098 μg/ml. Optical density (OD) determinations are made from fresh log-phase broth cultures of the test strains. Dilutions are made to achieve a final cell density of 1×10^6 CFU/ml. At OD=1, cell densities for different genera should be approximately:
(§2) 50 μl of the cell suspensions are added to each well of microtiter plates. The final cell density should be approximately 5×10^5 CFU/ml. These plates are incubated at 35° C. in an ambient air incubator for approximately 18 hr. The plates are read with a microplate reader and are visually inspected when necessary. The MIC is defined as the lowest concentration of the tetracycline compound that inhibits growth.

[1] = system: collagen-induced arthritis (CIA) in male DBA/1 mice; assay: CIA model, Example 3 (cumulative scores vs untreated controls); type: in vivo; conditions: Mus musculus
Protocol: The CIA model data were acquired according to the following protocol: • 1. Male DBA/1 mice were anaesthetized by i.p. injection of ketamine/xylazine (1.25 mg/ml:0.25 mg/ml, 100 μl/mouse). • 2. Anaesthetized mice were immunized intradermally at the base of the tail with 0.1 or 0.2 ml of an emulsion composed of 100 or 200 μg bovine type II collagen in Complete Freund's Adjuvant (50 μl/spot x 2 or 4 spots). • 3. At day 21 after the immunization, mice received an intradermal boost of 100 μl of an emulsion composed of 100 μg bovine type II collagen in Incomplete Freund's Adjuvant (50 μl/spot x 2 spots) • 4. After onset of disease symptoms (usually 3-4 days after boost), tetracycline derivatives were administered daily into mice via intraperitoneal or oral routes for 8 to 15 days. Methotrexate (12 mg/kg/day) or dexmethasone (4 mg/kg/day) was used as a control for inflammation suppression. • 5. The disease severity was scored daily for 8-15 days after the appearance of the symptoms. Disease severity was graded as following: • a. Visual clinical score for the presence of inflammation in the fingers/toes of the forepaws and hindpaws: • 1. Erythema and mild swelling confined to the mid-foot (tarsals) or ankle joint • 2. Erythema and mild swelling extending from the ankle to the mid-foot • 3. Erythema and moderate swelling extending from the ankle to the metatarsal joints • 4. Erythema and severe swelling encompassing the ankle, foot, and digits. • b. Clinical swelling score for the presence of paw edema in the forepaws and hindpaws: • Paw thickness was measured daily by an engineering micrometer after isofluorane inhalation or ketamine/xylazine (1.25 mg/ml:0.25 mg/ml, 100 μl/mouse) i.p. injection.
Daily scores and paw swelling measurements for each treatment group of mice were added over the total observation period to obtain a cumulative score. Cumulative scores were compared between untreated controls and treated groups to determine tetracycline-induced inhibition.

S. aureus RN450 = assay: Antibacterial activity MIC, Gram+ (Table 9); type: cell-based; conditions: Staphylococcus aureus, CAMHB, 35° C., approximately 18 hr
Protocol: as §1, §2

| SMILES | MIC (E. coli 25922) [µg/mL] | MIC (S. aureus RN450) [µg/mL] | inhibition in vivo at 25 mg/kg [1] [%] | inhibition in vivo at 12 mg/kg [1] [%] | inhibition in vivo at 6 mg/kg ([1]; Dose 6 mg/kg) [%] |
| --- | --- | --- | --- | --- | --- |
| CN(C)c1cc(-c2cnoc2)c(O)c2c1C[C@H]1C[C@H]3CC(O)=C(C(N)=O)C(=O)[C@@]3(O)C(O)=C1C2=O [AB] | > 64 | 0.5 (≈ 1.04 µM) | 38 |  |  |
| CN(C)c1cc(-c2ccn[nH]2)c(O)c2c1C[C@H]1C[C@H]3CC(O)=C(C(N)=O)C(=O)[C@@]3(O)C(O)=C1C2=O [AC] | > 64 | 2 (≈ 4.16 µM) | 33 |  |  |
| CN(C)c1cc(-c2cccnc2)c(O)c2c1C[C@H]1C[C@H]3CC(O)=C(C(N)=O)C(=O)[C@@]3(O)C(O)=C1C2=O [AE] | > 64 | 1 (≈ 2.03 µM) | 80 | 65 |  |
| CN(C)c1cc(-c2ccco2)c(O)c2c1C[C@H]1C[C@H]3CC(O)=C(C(N)=O)C(=O)[C@@]3(O)C(O)=C1C2=O [AG] | > 64 | 0.25 (≈ 0.52 µM) | 39 |  |  |
| CN(C)c1cc(C(=O)Nc2ccccc2)c(O)c2c1C[C@H]1C[C@H]3CC(O)=C(C(N)=O)C(=O)[C@@]3(O)C(O)=C1C2=O [AI] | > 64 | 0.12 (≈ 0.225 µM) | 62 |  |  |
| CN(C)c1cc(-c2nccs2)c(O)c2c1C[C@H]1C[C@H]3CC(O)=C(C(N)=O)C(=O)[C@@]3(O)C(O)=C1C2=O [AJ] | > 64 | 0.25 (≈ 0.502 µM) | 39 |  |  |
| CN(C)c1cc(-c2ccccc2)c(O)c2c1C[C@H]1C[C@H]3CC(O)=C(C(N)=O)C(=O)[C@@]3(O)C(O)=C1C2=O [AN] | > 64 | 1 (≈ 2.04 µM) | 65 | 49 |  |
| CN(C)c1cc(C2=CCCCO2)c(O)c2c1C[C@H]1C[C@H]3CC(O)=C(C(N)=O)C(=O)[C@@]3(O)C(O)=C1C2=O [AP] | > 64 | 4 (≈ 8.06 µM) | 63 |  |  |
| CC(C)c1noc(-c2cc(N(C)C)c3c(c2O)C(=O)C2=C(O)[C@]4(O)C(=O)C(C(N)=O)=C(O)C[C@@H]4C[C@@H]2C3)n1 [AR] | > 64 | 0.5 (≈ 0.953 µM) | 64 |  |  |
| CN(C)c1cc(-c2ccnn2C)c(O)c2c1C[C@H]1C[C@H]3CC(O)=C(C(N)=O)C(=O)[C@@]3(O)C(O)=C1C2=O [AS] | > 64 | 1 (≈ 2.02 µM) | 56 | 30 |  |
| CN(C)c1cc(CC(C)(C)C)c(O)c2c1C[C@H]1C[C@H]3CC(O)=C(C(N)=O)C(=O)[C@@]3(O)C(O)=C1C2=O [AW] | > 64 | 0.5 (≈ 1.03 µM) | 39 |  |  |
| Cc1ccc(N(C)C)c2c1C(=O)C1=C(O)[C@]3(O)C(=O)C(C(N)=O)=C(O)C[C@@H]3C[C@@H]1C2 [AY] | > 64 | 8 (≈ 19.4 µM) | 38 |  |  |
| Cc1ccc(O)c2c1C[C@H]1C[C@H]3CC(O)=C(C(N)=O)C(=O)[C@@]3(O)C(O)=C1C2=O [BA] | 64 (≈ 166 µM) | 0.25 (≈ 0.649 µM) | 34 |  |  |
| NC(=O)C1=C(O)C[C@@H]2C[C@@H]3Cc4c(-c5ncco5)ccc(O)c4C(=O)C3=C(O)[C@]2(O)C1=O [BB] | > 64 | 8 (≈ 18.2 µM) | 47 |  |  |
| CC(=O)c1ccc(O)c2c1C[C@H]1C[C@H]3CC(O)=C(C(N)=O)C(=O)[C@@]3(O)C(O)=C1C2=O [BC] | > 64 | 4 (≈ 9.68 µM) | 72 |  |  |
| CN(C)[C@@H]1C(O)=C(C(N)=O)C(=O)[C@@]2(O)C(O)=C3C(=O)c4c(O)ccc(-c5ccc6c(c5)OCO6)c4C[C@H]3C[C@@H]12 [B] | 64 (≈ 120 µM) | 0.13 (≈ 0.243 µM) | 23 |  |  |
| CC(=O)c1ccc(O)c2c1C[C@H]1C[C@H]3[C@H](N(C)C)C(O)=C(C(N)=O)C(=O)[C@@]3(O)C(O)=C1C2=O [C] | 0.13 (≈ 0.285 µM) | 0.06 (≈ 0.131 µM) | 62 | 62 |  |
| CN(C)c1cc(-c2ccccc2)c(O)c2c1C[C@H]1C[C@H]3[C@H](N(C)C)C(O)=C(C(N)=O)C(=O)[C@@]3(O)C(O)=C1C2=O [Compound A] | > 64 | 1 (≈ 1.87 µM) | 42 |  |  |
| COc1cc(-c2ccc(O)c3c2C[C@H]2C[C@H]4[C@H](N(C)C)C(O)=C(C(N)=O)C(=O)[C@@]4(O)C(O)=C2C3=O)cc(OC)c1OC [Compound D] |  |  | 27 |  |  |
| CCC(=O)c1cc(N(C)C)c2c(c1O)C(=O)C1=C(O)[C@]3(O)C(=O)C(C(N)=O)=C(O)[C@@H](N(C)C)[C@@H]3C[C@@H]1C2 [Compound M] | > 64 | 8 (≈ 15.6 µM) | 25 |  |  |
| CN(C)c1ccc(O)c2c1C[C@H]1C[C@H]3CC(O)=C(C(N)=O)C(=O)[C@@]3(O)C(O)=C1C2=O [F] |  |  | 55 |  |  |
| C=CCc1cc(N(C)C)c2c(c1O)C(=O)C1=C(O)[C@]3(O)C(=O)C(C(N)=O)=C(O)[C@@H](N(C)C)[C@@H]3C[C@@H]1C2 [I] |  |  | 29 |  |  |

More lines, main results first:

| MIC (E. coli 25922) [µg/mL] | MIC (S. aureus RN450) [µg/mL] | SMILES | inhibition in vivo at 25 mg/kg [1] [%] | inhibition in vivo at 12 mg/kg [1] [%] | inhibition in vivo at 6 mg/kg ([1]; Dose 6 mg/kg) [%] |
| --- | --- | --- | --- | --- | --- |
| > 64 | 2 (≈ 4.11 µM) | CCOC(=O)c1cc(N(C)C)c2c(c1O)C(=O)C1=C(O)[C@]3(O)C(=O)C(C(N)=O)=C(O)C[C@@H]3C[C@@H]1C2 [AA] | 41 |  |  |
| > 64 | 2 (≈ 4.12 µM) | CO/N=C(/C)c1cc(N(C)C)c2c(c1O)C(=O)C1=C(O)[C@]3(O)C(=O)C(C(N)=O)=C(O)C[C@@H]3C[C@@H]1C2 [AD] | 30 |  |  |
| > 64 | 1 (≈ 1.95 µM) | CN(C)c1cc(C(=O)NC(C)(C)C)c(O)c2c1C[C@H]1C[C@H]3CC(O)=C(C(N)=O)C(=O)[C@@]3(O)C(O)=C1C2=O [AH] | 59 |  |  |
| > 64 | > 64 | CN(C)c1cc(C(=O)OCCO)c(O)c2c1C[C@H]1C[C@H]3CC(O)=C(C(N)=O)C(=O)[C@@]3(O)C(O)=C1C2=O [AK] | 24 |  |  |
| > 64 | 1 (≈ 2.13 µM) | CCC(=O)c1cc(N(C)C)c2c(c1O)C(=O)C1=C(O)[C@]3(O)C(=O)C(C(N)=O)=C(O)C[C@@H]3C[C@@H]1C2 [AL] | 62 | 31 |  |
| > 64 | 2 (≈ 4.67 µM) | Cc1cc(N(C)C)c2c(c1O)C(=O)C1=C(O)[C@]3(O)C(=O)C(C(N)=O)=C(O)C[C@@H]3C[C@@H]1C2 [AM] | 73 | 66 | 36 |
| > 64 | 16 (≈ 31 µM) | COCCOC(=O)c1cc(N(C)C)c2c(c1O)C(=O)C1=C(O)[C@]3(O)C(=O)C(C(N)=O)=C(O)C[C@@H]3C[C@@H]1C2 [AO] | 52 |  |  |
| > 64 | 1 (≈ 2.19 µM) | CC(C)c1cc(N(C)C)c2c(c1O)C(=O)C1=C(O)[C@]3(O)C(=O)C(C(N)=O)=C(O)C[C@@H]3C[C@@H]1C2 [AU] | 51 |  |  |
| > 64 | 0.5 (≈ 0.975 µM) | CN(C)c1cc(C(=O)CC(C)(C)C)c(O)c2c1C[C@H]1C[C@H]3CC(O)=C(C(N)=O)C(=O)[C@@]3(O)C(O)=C1C2=O [AX] | 51 |  |  |
| > 64 | 1 (≈ 1.93 µM) | CN(C)c1cc(C(=O)c2ccccc2)c(O)c2c1C[C@H]1C[C@H]3CC(O)=C(C(N)=O)C(=O)[C@@]3(O)C(O)=C1C2=O [AZ] | 36 |  |  |
| > 64 | 0.5 (≈ 1.04 µM) | CN(C)c1cc(C(F)(F)F)c(O)c2c1C[C@H]1C[C@H]3CC(O)=C(C(N)=O)C(=O)[C@@]3(O)C(O)=C1C2=O [BD] | 44 |  |  |
| > 64 | 1 (≈ 2.2 µM) | CN(C)c1cc(C2CC2)c(O)c2c1C[C@H]1C[C@H]3CC(O)=C(C(N)=O)C(=O)[C@@]3(O)C(O)=C1C2=O [Compound AV] | 48 |  |  |
